Measured values: patent publication US20250304717A1, “CAMPTOTHECIN DERIVATIVE AND LIGAND-DRUG CONJUGATE” (HAINAN SIMCERE ZAIMING PHARMACEUTICAL CO., LTD., priority 2022, published 2025)

B1: ADC-L1-19-9 (antibody, human IgG1, kappa, V domains shown)
VH: EVQLLESGGGLVQPGGSLRLSCAASGFTFSNYAMSWVRQAPGKGLEWVSSISHNSGSTYYADSVKGRFTISRDNSKNTLYLQMNSLRAEDTAVYYCAKFISARKSLGRSYSNGMDVWGQGTLVTVSS
VL: QSVLTQPPSASGTPGQRVTISCTGSSSNIGSNDVTWYQQLPGTAPKLLIYADSKRPSGVPDRFSGSKSGTSASLAISGLRSEDEADYYCGTWDYSLSGYVFGGGTKLTVLR
modifications: drug-linker L1-19 on cysteine thiols after TCEP reduction; positions not given; DAR 7.3 for the whole conjugate
notes: Antibody-drug conjugate
B2: ROR1-Ab-2 (antibody, human IgG1, kappa, V domains shown)
VH: B1 VH
VL: B1 VL
notes: also called anti-human ROR1 monoclonal antibody ROR1-Ab-2
B3: ADC-L1-0-9 (antibody, human IgG1, kappa, V domains shown)
VH: B1 VH
VL: B1 VL
modifications: drug-linker L1-0 on cysteine thiols after TCEP reduction; positions not given; DAR 5.5 for the whole conjugate
B4: ADC-L1-19-P1-9 (antibody, human IgG1, kappa, V domains shown)
VH: B1 VH
VL: B1 VL
modifications: drug-linker L1-19-P1 on cysteine thiols after TCEP reduction; positions not given; DAR 7.7 for the whole conjugate
notes: Antibody-drug conjugate
B5: ADC-L1-19-8 (antibody, human IgG1, kappa, V domains shown)
VH: QVQLQESGPGLVKPSQTLSLTCTVSGYAFTAYNIHWVRQAPGQGLEWMGSFDPYDGGSSYNQKFKDRLTISKDTSKNQVVLTMTNMDPVDTATYYCARGWYYFDYWGHGTLVTVSS
VL: DIVMTQTPLSLPVTPGEPASISCRASKSISKYLAWYQQKPGQAPRLLIYSGSTLQSGIPPRFSGSGYGTDFTLTINNIESEDAAYYFCQQHDESPYTFGEGTKVEIKR
modifications: drug-linker L1-19 on cysteine thiols after TCEP reduction; positions not given; DAR 7.1 for the whole conjugate
notes: Antibody-drug conjugate
B6: ROR1-Ab-1 (antibody, human IgG1, kappa, V domains shown)
VH: B5 VH
VL: B5 VL
notes: also called anti-human ROR1 monoclonal antibody ROR1-Ab-1
B7: ADC-L1-19-P1-8 (antibody, human IgG1, kappa, V domains shown)
VH: B5 VH
VL: B5 VL
modifications: drug-linker L1-19-P1 on cysteine thiols after TCEP reduction; positions not given; DAR 7.7 for the whole conjugate
notes: Antibody-drug conjugate
B8: ADC-L1-0-8 (antibody, human IgG1, kappa, V domains shown)
VH: B5 VH
VL: B5 VL
modifications: drug-linker L1-0 on cysteine thiols after TCEP reduction; positions not given; DAR 6.6 for the whole conjugate
B9: ADC-L1-19-10 (antibody, human IgG1, kappa, V domains shown)
VH: QVQLRESGPGLVKPSETLSLTCTVSGFDISSYYMSWVRQPPGKGLEWIGAIGISGNAYYASWAKSRVTISRDTSKNQFSLKLSSVTAADTAVYYCARDHPTYGMDLWGPGTLVTVSS
VL: SYELTQPPSVSVAPGKTARITCEGNNIGSKAVHWYQQKPGQAPVLVIYDDDERPSGIPERFSGSNSGNTATLTISRVEAGDEADYYCQVWDSSAYVFGGGTKLTVLR
modifications: drug-linker L1-19 on cysteine thiols after TCEP reduction; positions not given; DAR 7.2 for the whole conjugate
notes: Antibody-drug conjugate
B10: ADC-L1-19-P1-10 (antibody, human IgG1, kappa, V domains shown)
VH: B9 VH
VL: B9 VL
modifications: drug-linker L1-19-P1 on cysteine thiols after TCEP reduction; positions not given; DAR 8.0 for the whole conjugate
notes: Antibody-drug conjugate
B11: ROR1-Ab-3 (antibody, human IgG1, kappa, V domains shown)
VH: B9 VH
VL: B9 VL
notes: also called anti-human ROR1 monoclonal antibody ROR1-Ab-3
B12: ADC-L1-0-10 (antibody, human IgG1, kappa, V domains shown)
VH: B9 VH
VL: B9 VL
modifications: drug-linker L1-0 on cysteine thiols after TCEP reduction; positions not given; DAR 7.5 for the whole conjugate

How the values were obtained:
[1] = system: SKBR3 cells; assay: Anti-tumor cell proliferation activity of compound of formula (D-H), Cell-Titer Glo, SKBR3; assay type: cell-based, human; conditions: Homo sapiens, SK-BR-3, 120 h, read-out: SKBR3 Antiproliferative activity IC50 (nM), SKBR3 cells, 5 days
Method: (§1) Cell culture: HCT116 cells and SKBR3 cells were cultured with a McCoy's 5a medium containing 10% fetal bovine serum+1% penicillin-streptomycin at 37° C. with 5% CO2, and OVCAR3 cells were cultured with a 1640 medium containing 20% fetal bovine serum+2 μg/mL bovine insulin+1% penicillin-streptomycin at 37° C. with 5% CO2. Cells at logarithmic growth phase were available for the experiment.
(§2) Cell proliferation activity test: The Cell-Titer Glo reagent was used to test the compound for inhibitory activity on proliferation of the three cell strains HCT116, SKBR3, and OVCAR3. HCT116 cells (1500 per well), SKBR3 cells (3000 per well), and OVCAR3 cells (5000 per well) were seeded on 96-well plates and incubated at 37° C. with 5% CO2 for 24 h. After a solution of the compound to be detected was added (the compound was dissolved in DMSO so that the compound concentration was 1 mM, then the compound was diluted to […] in DMSO at 9 concentrations in a 3-fold dilution, and 10 μL of the prepared compound solution was transferred to the 96-well plate so that the final concentration was 0-300 nM), the mixture was incubated at 37° C. with 5% CO2. HCT116 cells were cultured for 3 days, and SKBR3 cells and OVCAR3 cells were cultured for 5 days. The Cell-Titer Glo reagent was added and the cell activity was measured.
(§3) A negative control group and a positive control group were respectively used as Bottom and Top. The negative control group was not added with cells, only added with the culture medium in the same volume, and other operations were consistent with those of the experimental group. The positive control group was not added with the test drug, and other operations were consistent with those of the experimental group.
(§4) Data analysis: % Inhibition was calculated, and compound IC50 was fitted.
(§5) % Inhibition=1-100%×(Signal−Bottom)/(Top−Bottom).
(§6) Signal referred to the signal value of the experimental group, Bottom referred to the average signal value of the negative control group, and Top referred to the average signal value of the positive control group.

[2] = system: HCT116 cells; assay: Anti-tumor cell proliferation activity of compound of formula (D-H), Cell-Titer Glo, HCT116; assay type: cell-based; conditions: Homo sapiens, HCT-116, 72 h, read-out: HCT116 Antiproliferative activity IC50 (nM), HCT116 cells, 3 days
Method: as §1, §2, §3, §4, §5, §6

[3] = system: OVCAR3 cells; assay: Anti-tumor cell proliferation activity of compound of formula (D-H), Cell-Titer Glo, OVCAR3; assay type: cell-based; conditions: Homo sapiens, OVCAR-3, 120 h, read-out: OVCAR3 Antiproliferative activity IC50 (nM)
Method: as §1, §2, §3, §4, §5, §6

[4] = biological target: human ROR1 on stably transfected cell strain MCF7-hROR1 clone 2G2 (human, UniProt Q01973 30-406); assay: flow cytometry (FACS) on MCF7-hROR1 clone 2G2 cells, 5-fold dilutions from 100 nM, Alexa Fluor 647 anti-human IgG secondary antibody, four-parameter fit
Method: Stably transfected cell strain MCF7-hROR1 clone 2G2 constructed in the steps described above was expanded to a logarithmic growth phase in a T-75 cell culture flask, and the medium supernatant was discarded after centrifugation. The cell pellet was washed twice with PBS. […] After the mixture was washed twice with PBS, a secondary antibody was added: Alexa Fluor® 647 AffiniPure Goat Anti-Human IgG (H+L) (purchased from Jackson Immuno, Cat. No: 109-605-088), and the mixture was incubated at 4° C. for 1 h. After the mixture was washed twice with PBS, the cells were resuspended, and detected and analyzed by FACS (FACS Canto™, purchased from BD Biosciences). Data were analyzed by four-parameter curve fitting using Graphpad Prism software to give EC₅₀ values.

Molecule | IC50 [1] | IC50 [2] | IC50 [3] | EC50 [4]
CC[C@@]1(O)C(=O)OCc2c1cc1n(c2=O)Cc2c-1nc1cc(F)c(Cl)c(F)c1c2CNC(=O)CO [Compound 21, (S)-N-((9-chloro-4-ethyl-8,10-difluoro-4-hydroxy-3,14-dioxo-3,4,12,14-tetrahydro-1H-pyrano[3′,4′:6,7]indolizino[1,2-b]quinolin-11-yl)methyl)-2-hydroxyacetamide] | 4 nM | < 10 nM | 1.7 nM | –
CC[C@@]1(O)C(=O)OCc2c1cc1n(c2=O)Cc2c-1nc1cc(F)c(Cl)c(F)c1c2CNC(=O)C(C)(C)O [Compound 22, (S)-N-((9-chloro-4-ethyl-8,10-difluoro-4-hydroxy-3,14-dioxo-3,4,12,14-tetrahydro-1H-pyrano[3′,4′:6,7]indolizino[1,2-b]quinolin-11-yl)methyl)-2-hydroxy-2-methylpropanamide] | 3.5 nM | < 10 nM | 1.4 nM | –
CC[C@@]1(O)C(=O)OCc2c1cc1n(c2=O)Cc2c-1nc1cc(F)c(Cl)c(F)c1c2CNC(=O)C(O)C1CC1 (stereo partly drawn) [Compound 23, N—(((S)-9-chloro-4-ethyl-8,10-difluoro-4-hydroxy-3,14-dioxo-3,4,12,14-tetrahydro-1H-pyrano[3′,4′:6,7]indolizino[1,2-b]quinolin-11-yl)methyl)-2-cyclopropyl-2-hydroxyacetamide] | 5.3 nM | < 10 nM | 3.9 nM | –
CC[C@@]1(O)C(=O)OCc2c1cc1n(c2=O)Cc2c-1nc1cc(F)c(Cl)c(F)c1c2CNC(=O)[C@@H](C)O [Compound 25, (R)—N—(((S)-9-chloro-4-ethyl-8,10-difluoro-4-hydroxy-3,14-dioxo-3,4,12,14-tetrahydro-1H-pyrano[3′,4′:6,7]indolizino[1,2-b]quinolin-11-yl)methyl)-2-hydroxypropanamide] | 3.7 nM | < 10 nM | 2 nM | –
CC[C@@]1(O)C(=O)OCc2c1cc1n(c2=O)Cc2c-1nc1cc(F)c(Cl)c(F)c1c2CNC(=O)[C@H](C)O [Compound 26, (S)-N-(((S)-9-chloro-4-ethyl-8,10-difluoro-4-hydroxy-3,14-dioxo-3,4,12,14-tetrahydro-1H-pyrano[3′,4′:6,7]indolizino[1,2-b]quinolin-11-yl)methyl)-2-hydroxypropanamide] | 4.2 nM | < 10 nM | 1.6 nM | –
CC[C@@]1(O)C(=O)OCc2c1cc1n(c2=O)Cc2c-1nc1cc3c(c(F)c1c2CNC(=O)C(O)C1CC1)OCO3 (stereo partly drawn) [Compound 35, 2-cyclopropyl-N-(((S)-7-ethyl-15-fluoro-7-hydroxy-8,11-dioxo-7,8,11,13-tetrahydro-10H-[1,3]dioxolo[4,5-g]pyrano[3′,4′:6,7]indolizino[1,2-b]quinolin-14-yl)methyl)-2-hydroxyacetamide] | 3.5 nM | < 10 nM | 1.2 nM | –
B1 | – | – | – | 0.42 nM
B2 | – | – | – | 0.98 nM
B3 | – | – | – | 0.43 nM
B4 | – | – | – | 0.5 nM
B5 | – | – | – | 0.68 nM
B6 | – | – | – | 0.99 nM
B7 | – | – | – | 0.34 nM
B8 | – | – | – | 0.75 nM
B9 | – | – | – | 0.98 nM
B10 | – | – | – | 0.57 nM
B11 | – | – | – | 0.91 nM
B12 | – | – | – | 1.25 nM
